Where “and” joins values, the source holds several entries; their conditions need not be identical. Identical values can stand only once. Counter-ions that a name gives are not always drawn.

One data set has as its target GABA-A receptor. As to the kind of experiment: Radioligand binding at the GABA-A receptor. Also noted: species or system rat. The settings on record: mean of two-three independent experiments; read-out: GABA-A Ki ± SEM. As for the experimental part:
The study was conducted in accordance with previously established protocols, and performed in duplicate. Rat brains were homogenized and prepared following the described methodologies. The assay was carried out directly on 96-well microplates containing 50 mM Tris-HCl buffer (pH 7.4) in a total volume of 300 μL. […] To determine nonspecific binding, 100 μM GABA was included in the mixture. The 96-well microplates were incubated at 0 °C for 10 min, followed by rapid filtration through FilterMate B glass fiber filters (PerkinElmer, USA) using a Harvester-96 MACH III FM (Tomtec, USA). The filters were gently dried in a microwave and sealed in plastic bags (PerkinElmer, USA). Each filter was then immersed in 10 mL of Ultima Gold MV liquid scintillation cocktail (PerkinElmer, USA). […] Ki values were calculated using the Cheng and Prusoff equation, and statistical analyses were conducted using GraphPad Prism (version 4.0, San Diego, CA, USA)

The nature of the next data set: PAMPA permeability assay. The class given is in vitro ADME. The settings on record: PBS pH 7.4, 100 μM, zolpidem tested as tartrate; for Papp at 5 h, 100 μM: pH 7.4, PAMPA, read-out: Permeability Pe ± SD; for Permeability Pe ± SD: 5 h. As for the experimental part: PAMPA. The precoated PAMPA Plate System Gentest, obtained from Corning (Tewksbury, MA, USA), was used for the permeability study. The system includes a 96-well receiver filter plate precoated with structured phospholipid layers and a matching donor microplate. Stock solutions of the test compounds and reference drugs were prepared in PBS buffer (pH 7.4) at a final concentration of 100 μM. Each compound solution (200 μL) was added to the donor wells and incubated at room temperature for 5 h. The quantity of molecules that penetrated from the donor wells to the acceptor wells through the phospholipid membrane was determined using UPLC-MS spectrometry (Waters ACQUITY TQD system with the TQ Detector, Waters, Milford, USA) with an internal standard. Permeability coefficients (Pe, cm/s) were calculated according to the formula provided by the manufacturer.
Background: The PAMPA barrier holds no transporters, so it reflects passive diffusion.

The test system of data set [1] is SH-SY5Y cells. Briefly: Intracellular calcium concentration after 6-OHDA (Fluo-4). The class given is cell-based, human. The settings on record: 50 μM pretreatment 1 h, then 6-OHDA 250 μM 1 h. As for the experimental part: 7 (A). Effect of 6-Hydroxydopamine (6-OHDA) on intracellular calcium concentration [Ca^2+] determined by Fluo-4 AM. After pretreatment with tested compounds (50 μM) or vehicle (0.5% DMSO, v/v) for 1 h, the cells were incubated with 6-Hydroxydopamine (6-OHDA, 250 μM) for 1 h. 6-OHDA control: cells treated with 250 μM of 6-OHDA. […]. DMSO control: cells treated with 0.5% DMSO only. Data are presented as the mean ± SD from 2–3 independent experiments. Experiments were carried on with ImageXpress Micro XLS (Molecular Devices). (B) The level of ROS generation was determined by Cell ROX dye. After pretreatment with tested compounds (50 μM) or vehicle (0.5% DMSO, v/v) for 1 h, the cells were incubated with hydrogen peroxide (H2O2, 300 μM) for 1 h. H2O2 control: cells treated with H2O2 (300 μM). DMSO control: cells treated with 0.5% DMSO only. Data are presented as the mean ± SD from 2–3 independent experiments. Experiments were carried on with the ImageXpress Micro XLS (Molecular Devices).
The SH-SY5Y human neuroblastoma cell line was maintained according to established protocols. The cells, obtained from the American Type Culture Collection (ATCC), were cultured in Dulbecco’s Modified Eagle’s Medium (DMEM, high glucose; Thermo Fisher), supplemented with 10% fetal bovine serum (Thermo Fisher), 100 IU/ml penicillin (Merck), and 100 μg/mL streptomycin (Merck). They were grown in 75 cm^2 flasks (Nunc) at 37 °C in a humidified atmosphere containing 5% CO2. For compound evaluation, SH-SY5Y cells were plated in 96-well plates (Falcon) at a density of 2 × 10^4 cells per well. The cells were allowed to adhere and grow for 24 h in an incubator set to 37 °C and 5% CO2 before starting the experiments. Stock solutions of both test and reference compounds were prepared at a concentration of 10^–2 M. A minimum of 1 mg of each compound was dissolved in dimethyl sulfoxide (DMSO). Serial dilutions were made in DMSO, then further diluted in PBS, mixed, and added to the cell culture medium.
The intracellular Ca^2+ levels were assessed using a homogeneous cell-based assay with the Fluo-4 Direct Calcium Assay Kit (Thermo Fisher). Following incubation with the tested compounds, the supernatant was discarded, and the cells were incubated with 1 μM Fluo-4/AM in FluoroBrite DMEM (Thermo Fisher) for 1 h at 37 °C. The results were expressed as a percentage relative to the control (DMSO). Fluorescence intensity was recorded using the ImageXpress Micro XLS system (Molecular Devices).
In general terms: A change in cytosolic calcium serves as a functional read-out for many receptors and channels.

For another data set, the target named is T1, α1β2γ2 GABA-A receptor (Homo sapiens, UniProt P14867+P18507).
T1 construct: expressed in transfected cells
As to the kind of experiment: Electrophysiological studies (QPatch16X automated patch-clamp), PAM efficacy. The class given is cell-based. (In general: In patch-clamp work, channel activity is measured electrically.)

Data set [2] has as its system SH-SY5Y cells. Briefly: ToxiLight assay (cell membrane damage). The format is cell-based. The settings on record: Table S1, 24 h. As for the experimental part:
Damage to the cell membrane was assessed using the bioluminescent ToxiLight bioassay (Lonza), a profound method for detecting cell toxicity. Following 24 h of treatment, 5 μL of the supernatant above the sediment was transferred to a 384-well plate (PerkinElmer). Subsequently, 20 μL of Adenylate Kinase Detection Reagent (AKDR) was added to each well. Luminescence was recorded after a 10 min incubation period using a POLARstar Omega plate reader (BMG Labtech). Results are presented as a percentage relative to the control sample (cells lysed), reflecting the proportion of dead cells compared to the control.
(§1) 1. Cytotoxicity studies for selected compounds
Table S1. The viability of the cells SH-SY5Y after treatment with tested compounds for 24 the results are expressed as a percentage of dead cells with luminescence ToxiLight Assay. The results are expressed as a per cent of control with whole lysis cells. N.C. not countable […]
Table S2. The viability of the cells SH-SY5Y after treatment with tested compounds for 24 h the results are expressed as a percentage of live cells with fluorescence PrestoBlue Assay. The results are expressed as a per cent of vehicle (DMSO). […]

For data set [3], the system named is SH-SY5Y cells. Briefly: PrestoBlue cell viability assay. The class given is cell-based. The settings on record: Table S2, 24 h. As for the experimental part:
Cell viability was determined using the Presto Blue reagent (ThermoFisher) following the manufacturer’s instructions.
as §1
Table S1. The viability of the cells SH-SY5Y after treatment with tested compounds for 24 the results are expressed as a percentage of dead cells with luminescence ToxiLight Assay. The results are expressed as a per cent of control with whole […]
percentage of live cells with fluorescence PrestoBlue Assay. The results are expressed as a per cent of vehicle (DMSO).

T1 sequence (P14867 28-456): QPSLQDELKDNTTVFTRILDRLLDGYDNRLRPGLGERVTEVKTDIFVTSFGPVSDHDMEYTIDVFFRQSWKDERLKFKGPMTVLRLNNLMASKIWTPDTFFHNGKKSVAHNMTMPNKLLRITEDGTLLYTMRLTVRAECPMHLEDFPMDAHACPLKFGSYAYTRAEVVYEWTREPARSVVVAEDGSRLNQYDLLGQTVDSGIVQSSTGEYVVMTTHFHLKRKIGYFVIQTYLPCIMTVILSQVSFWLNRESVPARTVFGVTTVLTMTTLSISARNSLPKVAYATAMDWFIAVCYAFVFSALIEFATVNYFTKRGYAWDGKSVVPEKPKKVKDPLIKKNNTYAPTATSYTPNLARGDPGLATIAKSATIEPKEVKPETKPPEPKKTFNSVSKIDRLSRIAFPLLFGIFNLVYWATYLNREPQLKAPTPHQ
T1 sequence (P47870 25-512 partner limits assumed): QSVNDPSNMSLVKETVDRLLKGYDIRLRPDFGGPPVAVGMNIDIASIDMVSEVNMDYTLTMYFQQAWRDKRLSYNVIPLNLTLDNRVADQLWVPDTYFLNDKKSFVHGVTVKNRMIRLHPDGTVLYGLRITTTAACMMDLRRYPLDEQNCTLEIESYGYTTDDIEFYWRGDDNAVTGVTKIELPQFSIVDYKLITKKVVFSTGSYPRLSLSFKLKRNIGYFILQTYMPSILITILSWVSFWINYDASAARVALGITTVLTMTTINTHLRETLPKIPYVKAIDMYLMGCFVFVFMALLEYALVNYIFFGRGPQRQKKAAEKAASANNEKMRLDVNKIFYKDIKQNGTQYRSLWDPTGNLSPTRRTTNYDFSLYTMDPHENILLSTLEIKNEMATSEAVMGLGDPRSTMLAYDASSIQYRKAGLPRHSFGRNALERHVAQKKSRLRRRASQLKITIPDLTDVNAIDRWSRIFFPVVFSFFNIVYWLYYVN
T1 sequence (P18507 40-475): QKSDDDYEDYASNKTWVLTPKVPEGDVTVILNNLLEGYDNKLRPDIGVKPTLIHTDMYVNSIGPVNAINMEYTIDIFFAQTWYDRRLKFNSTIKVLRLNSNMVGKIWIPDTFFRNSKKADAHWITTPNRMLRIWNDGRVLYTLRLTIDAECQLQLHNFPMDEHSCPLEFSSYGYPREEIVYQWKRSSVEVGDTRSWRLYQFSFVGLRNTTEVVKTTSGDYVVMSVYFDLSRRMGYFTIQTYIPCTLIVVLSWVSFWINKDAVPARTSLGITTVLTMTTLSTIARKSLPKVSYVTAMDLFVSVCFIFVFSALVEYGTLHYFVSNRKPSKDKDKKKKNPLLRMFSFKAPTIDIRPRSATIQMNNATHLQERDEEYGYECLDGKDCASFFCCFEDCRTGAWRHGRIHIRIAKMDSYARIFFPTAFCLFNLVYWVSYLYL

As usually defined, the Ki is the equilibrium dissociation constant of an inhibitor or competing ligand from its target. For the compound `Cc1ccc2nc(-c3ccc(F)cc3)c(CC(=O)N3CCN(C)CC3)n2c1` [Compound 4, 2-[2-(4-Fluorophenyl)-6-methylimidazo[1,2-a]pyridin-3-yl]-1-(4-methylpiperazin-1-yl)ethan-1-one formate salt], the Ki at GABA-A receptor stood at 278 ± 43 nM.
For the compound `Cc1ccc2nc(-c3ccc(F)cc3)c(CC(=O)N3CCNCC3)n2c1` [Compound 5, 2-[2-(4-Fluorophenyl)-6-methylimidazo[1,2-a]pyridin-3-yl]-1-(piperazin-1-yl)ethan-1-one], in the data set “PAMPA permeability assay”, the Papp at 5 h, 100 μM was found to be 3.35 ± 0.4 ×10⁻⁶ cm/s.
`Cc1ccc2nc(-c3ccc(F)cc3)c(CC(=O)N3CCC(C)CC3)n2c1` [Compound 7, 2-[2-(4-Fluorophenyl)-6-methylimidazo[1,2-a]pyridin-3-yl]-1-(4-methylpiperidin-1-yl)ethan-1-one]: the Ki on GABA-A receptor was 204 ± 20.6 nM.
On the same count and under the same terms, the value for `Cc1ccc2nc(-c3ccc(F)cc3)c(CC(=O)N3CCN(C(C)C)CC3)n2c1` [Compound 8, 2-[2-(4-Fluorophenyl)-6-methylimidazo[1,2-a]pyridin-3-yl]-1-[4-(propan-2-yl)piperazin-1-yl]ethan-1-one] was 5230 ± 510 nM; that for `Cc1ccc2nc(-c3ccc(F)cc3)c(CC(=O)N3CCN(C4CC4)CC3)n2c1` [Compound 9, 1-(4-Cyclopropylpiperazin-1-yl)-2-[2-(4-fluorophenyl)-6-methylimidazo[1,2-a]pyridin-3-yl]ethan-1-one] was 1340 ± 46 nM.
Same read-out and setting: the value for `Cc1ccc2nc(-c3ccc(F)cc3)c(CC(=O)N3CCN(CC(C)C)CC3)n2c1` [Compound 10, 2-[2-(4-Fluorophenyl)-6-methylimidazo[1,2-a]pyridin-3-yl]-1-[4-(2-methylpropyl)piperazin-1-yl]ethan-1-one] was 3330 ± 374 nM; that for `Cc1ccc2nc(-c3ccc(F)cc3)c(CC(=O)N3CCN(C(C)(C)C)CC3)n2c1` [Compound 11, 1-(4-tert-Butylpiperazin-1-yl)-2-[2-(4-fluorophenyl)-6-methylimidazo[1,2-a]pyridin-3-yl]ethan-1-one] was 7820 ± 1720 nM; that for `Cc1ccc2nc(-c3ccc(F)cc3)c(CC(=O)N3CC4CCCCC4C3)n2c1` (stereo not shown) [Compound 12, 2-[2-(4-Fluorophenyl)-6-methylimidazo[1,2-a]pyridin-3-yl]-1-(octahydro-1H-isoindol-2-yl)ethan-1-one] was 517 ± 61.2 nM.
Consider `Cc1ccc2nc(-c3ccc(F)cc3)c(CC(=O)N3CCCCCC3)n2c1` [Compound 13, 1-(Azepan-1-yl)-2-(2-(4-fluorophenyl)-6-methylimidazo[1,2-a]pyridin-3-yl)ethan-1-one], for which, at GABA-A receptor, the inhibitory constant (Ki) was found to be 453 ± 59.3 nM.
Same read-out and setting: the value for `Cc1ccc2nc(-c3ccc(F)cc3)c(CC(=O)N3CCSC3(C)C)n2c1` [Compound 14, 1-(2,2-Dimethyl-1,3-thiazolidin-3-yl)-2-[2-(4-fluorophenyl)-6-methylimidazo[1,2-a]pyridin-3-yl]ethan-1-one] was 551 nM and 552 nM.
As a reminder, the EC50 is the concentration giving half of the maximal effect. A low value points to a more potent agent. Take `Cc1ccc2nc(-c3ccc(F)cc3)c(CC(=O)N3CCSC3)n2c1` [Compound 15, 2-[2-(4-Fluorophenyl)-6-methylimidazo[1,2-a]pyridin-3-yl]-1-(1,3-thiazolidin-3-yl)ethan-1-one]: the “Reduction of intracellular calcium levels” value with SH-SY5Y cells [1] is given as not above 50%. This compound yielded an EC50 at α1β2γ2 GABA-A receptor of 743 ± 136 nM. Further, the “X [%], percentage of dead cells, ToxiLight Assay (per cent of control with whole lysis cells)” value in the data set on SH-SY5Y cells [2] (1E-04 M) came to 67%; with SH-SY5Y cells [2] (1E-05 M), 108%; with SH-SY5Y cells [2] (1E-06 M), 110%; with SH-SY5Y cells [2] (1E-07 M) it was 107%; in the data set with SH-SY5Y cells [2] (1E-08 M), 108%; in the data set with SH-SY5Y cells [2] (1E-09 M), 101%. Also, the “X [%], percentage of dead cells, ToxiLight Assay (per cent of control with whole lysis cells)” value in the data set with SH-SY5Y cells [2] (3E-05 M) is given as 96%; in the data set with SH-SY5Y cells [2] (3E-06 M) it was 105%. Besides, in “PAMPA permeability assay”, the “Permeability Pe ± SD” value is given as 7.89 ± 1.35 ·10^–6 cm/s. Further, in the data set “PAMPA permeability assay”, the Papp at 5 h, 100 μM is more than 4 ×10⁻⁶ cm/s. For the same compound, the “X [%], percentage of live cells, PrestoBlue Assay (per cent of vehicle DMSO)” value stood at 14% in the data set on SH-SY5Y cells [3] (1E-04 M); 12% in the data set on SH-SY5Y cells [3] (1E-05 M); 16% in the data set with SH-SY5Y cells [3] (1E-06 M); 14% in the data set with SH-SY5Y cells [3] (1E-07 M); 15% in the data set with SH-SY5Y cells [3] (1E-08 M); 14% in the data set on SH-SY5Y cells [3] (1E-09 M). Also, the “X [%], percentage of live cells, PrestoBlue Assay (per cent of vehicle DMSO)” value in the data set on SH-SY5Y cells [3] (3E-05 M) and with SH-SY5Y cells [3] (3E-06 M) was 15% each time.
Consider `Cc1ccc2nc(-c3ccc(F)cc3)c(CC(=O)NC3CCNC3)n2c1` (stereo not shown) [Compound 16, 2-[2-(4-Fluorophenyl)-6-methylimidazo[1,2-a]pyridin-3-yl]-N-(pyrrolidin-3-yl)acetamide], for which the inhibitory constant (Ki) at GABA-A receptor was < 200 nM and 140 nM. In addition, the Papp at 5 h, 100 μM in “PAMPA permeability assay” was 0.154 ± 0.005 ×10⁻⁶ cm/s.
As for `CN1C(=O)CN=C(c2ccccc2)c2cc(Cl)ccc21` [diazepam, reference compound], the Ki on GABA-A receptor was 5.6 ± 0.7 nM.
Consider `CCN1CCCC1CNC(=O)c1cc(S(N)(=O)=O)ccc1OC` (stereo not shown) [sulpiride, reference compound], for which the “Permeability Pe ± SD” value in “PAMPA permeability assay” is on record as 0.016 ± 0.003 ·10^–6 cm/s.
